Reference: PubChem BioAssay (NCI)
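Exposure lasted 48 hours, with cells grown in 96-well plates and compounds tested at five concentrations. The concentration for full growth arrest is given as TGI.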

Tests used:
Experiment in all cases: DTP human tumour cell line panel, 48 h
786-0 renal = system: 786-0 renal
A498 renal = system: A498 renal
A549 NSCLC = system: A549 NSCLC
ACHN renal = system: ACHN renal
BT-549 breast = system: BT-549 breast
CAKI-1 renal = system: CAKI-1 renal
CCRF-CEM leukemia = system: CCRF-CEM leukemia
COLO 205 colon = system: COLO 205 colon
DU-145 prostate = system: DU-145 prostate
EKVX NSCLC = system: EKVX NSCLC
HCC-2998 colon = system: HCC-2998 colon
HCT-116 colon = system: HCT-116 colon
HCT-15 colon = system: HCT-15 colon
HL-60(TB) leukemia = system: HL-60(TB) leukemia
HOP-62 NSCLC = system: HOP-62 NSCLC
HOP-92 NSCLC = system: HOP-92 NSCLC
HS 578T breast = system: HS 578T breast
HT29 colon = system: HT29 colon
IGROV1 ovarian = system: IGROV1 ovarian
K-562 leukemia = system: K-562 leukemia
KM12 colon = system: KM12 colon
LOX IMVI melanoma = system: LOX IMVI melanoma
M14 melanoma = system: M14 melanoma
MALME-3M melanoma = system: MALME-3M melanoma
MCF7 breast = system: MCF7 breast
MDA-MB-231 breast = system: MDA-MB-231 breast
MDA-MB-435 = system: MDA-MB-435
MDA-N = system: MDA-N
MOLT-4 leukemia = system: MOLT-4 leukemia
NCI-H226 lung = system: NCI-H226 lung
NCI-H23 lung = system: NCI-H23 lung
NCI-H460 lung = system: NCI-H460 lung
NCI-H522 lung = system: NCI-H522 lung
NCI/ADR-RES ovarian = system: NCI/ADR-RES ovarian
OVCAR-3 ovarian = system: OVCAR-3 ovarian
OVCAR-5 ovarian = system: OVCAR-5 ovarian
OVCAR-8 ovarian = system: OVCAR-8 ovarian
PC-3 prostate = system: PC-3 prostate
RPMI-8226 leukemia = system: RPMI-8226 leukemia
RXF 393 renal = system: RXF 393 renal
SF-268 CNS = system: SF-268 CNS
SF-295 CNS = system: SF-295 CNS
SF-539 CNS = system: SF-539 CNS
SK-MEL-28 melanoma = system: SK-MEL-28 melanoma
SK-MEL-5 melanoma = system: SK-MEL-5 melanoma
SK-OV-3 ovarian = system: SK-OV-3 ovarian
SNB-19 CNS = system: SNB-19 CNS
SNB-75 CNS = system: SNB-75 CNS
SR leukemia = system: SR leukemia
SW-620 colon = system: SW-620 colon
TK-10 renal = system: TK-10 renal
U251 CNS = system: U251 CNS
UACC-257 melanoma = system: UACC-257 melanoma
UACC-62 melanoma = system: UACC-62 melanoma
UO-31 renal = system: UO-31 renal

Measured: TGI

O=P(O)(O)C(NCC(O)CN1CCOCC1)P(=O)(O)O (stereo not given)
> 100 µM: all assays above
